Data as given in patent US20240309038A1, “NOVEL GALACTOSIDE INHIBITOR OF GALECTINS” (GALECTO BIOTECH AB, priority 2020, published 2024).
pKd: −log10 of the molar value.

target: Gal-3 (Homo sapiens, UniProt P17931); assay: Fluorescence anisotropy assay, inhibition of galectin / fluorescein tagged saccharide probe interaction; type: binding
Protocol: The affinity of Example 1-59 for galectins were determined by a fluorescence anisotropy assay where the compound was used as an inhibitor of the interaction between galectin and a fluorescein tagged saccharide probe as described Sörme, P., Kahl-Knutsson, B., Huflejt, M., Nilsson, U. J., and Leffler H. (2004) Fluorescence polarization as an analytical tool to evaluate galectin-ligand interactions. Anal. Biochem. 334: 36-47, (Sarme et al., 2004)

Sequence of Gal-3 (P17931 whole entry, species assumed): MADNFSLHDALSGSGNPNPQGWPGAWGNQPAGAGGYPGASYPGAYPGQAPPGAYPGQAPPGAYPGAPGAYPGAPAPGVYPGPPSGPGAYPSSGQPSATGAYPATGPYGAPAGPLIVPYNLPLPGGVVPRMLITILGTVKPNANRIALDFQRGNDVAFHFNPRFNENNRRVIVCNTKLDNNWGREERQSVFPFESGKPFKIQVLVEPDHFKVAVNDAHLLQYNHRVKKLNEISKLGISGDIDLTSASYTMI

pKd	SMILES
7.89	Cc1nc([C@@H]2OC(CO)[C@H](O)C(n3cc(-c4cc(F)c(F)c(F)c4)c(C)n3)C2O)n(-c2cc(Cl)ccc2C(F)(F)F)n1 (stereo in doubt) [Example 49, 5-Chloro-1-{5-{3-deoxy-3-[4-(3,4,5-trifluorophenyl)-3-methyl-1H-1,2-pyrazol-1-yl]-β-D-galactopyranosyl}-3-methyl-1H-1,2,4-triazol-1-yl}-2-(trifluoromethyl)benzene]
7.09	Cc1nc([C@@H]2OC(CO)[C@H](O)C(n3cc(-c4cc(F)ccn4)cn3)C2O)n(-c2cc(Cl)ccc2C(F)(F)F)n1 (stereo in doubt) [Example 7, 5-Chloro-1-{5-{3-deoxy-3-[4-(4-fluoropyridin-2-yl)-1H-1,2-pyrazol-1-yl]-β-D-galactopyranosyl}-3-methyl-1H-1,2,4-triazol-1-yl}-2-(trifluoromethyl)benzene]
7.96	Cc1nc([C@@H]2OC(CO)[C@H](O)C(n3cc(-c4cc(F)c(Cl)c(F)c4)c(C)n3)C2O)n(-c2cc(Cl)ccc2C(F)(F)F)n1 (stereo in doubt) [Example 12, 1-{5-{3-[4-(4-Chloro-3,5-difluorophenyl)-3-methyl-1H-1,2-pyrazol-1-yl]-3-deoxy-β-D-galactopyranosyl}-3-methyl-1H-1,2,4-triazol-1-yl}-5-chloro-2-(trifluoromethyl)benzene]
7.80	Cc1nc([C@@H]2OC(CO)[C@H](O)C(n3cc(-c4cc(F)c(F)c(F)c4)cn3)C2O)n(-c2cc3sc(C)nc3cc2F)n1 (stereo in doubt) [Example 37, 6-{5-{3-Deoxy-3-[4-(3,4,5-trifluorophenyl)-1H-1,2-pyrazol-1-yl]-β-D-galactopyranosyl}-3-methyl-1H-1,2,4-triazol-1-yl}-5-fluoro-2-methylbenzothiazole]
6.68	Cc1nc([C@@H]2OC(CO)[C@H](O)C(n3cc(-c4cc(F)c(F)c(F)c4)cn3)C2O)n(-c2ccc3nc(C)sc3c2F)n1 (stereo in doubt) [Example 38, 6-{5-{3-Deoxy-3-[4-(3,4,5-trifluorophenyl)-1H-1,2-pyrazol-1-yl]-β-D-galactopyranosyl}-3-methyl-1H-1,2,4-triazol-1-yl}-7-fluoro-2-methylbenzothiazole]
7.41	Cc1nc2ccc(-n3cnnc3[C@@H]3OC(CO)[C@H](O)C(n4cc(-c5cc(F)c(F)c(F)c5)cn4)[C@@H]3O)cc2s1 (stereo partly drawn) [Example 2, 6-{3-{3-Deoxy-3-[4-(3,4,5-trifluorophenyl)-1H-1,2-pyrazol-1-yl]-β-D-galactopyranosyl}-4H-1,2,4-triazol-4-yl}-2-methylbenzothiazole]
6.62	Cc1nc([C@@H]2OC(CO)[C@H](O)C(n3cc(-c4cc(F)c(F)c(F)c4)cn3)[C@@H]2O)n(-c2cnc(C#N)c(Cl)c2)n1 (stereo partly drawn) [Example 23, 3-Chloro-2-cyano-5-{5-{3-deoxy-3-[4-(3,4,5-trifluorophenyl)-1H-1,2-pyrazol-1-yl]-β-D-galactopyranosyl}-3-methyl-1H-1,2,4-triazol-1-yl}pyridine]
7.82	Cc1nc([C@@H]2OC(CO)[C@H](O)C(n3cc(-c4cc(F)c(F)c(F)c4)c(C#N)n3)C2O)n(-c2cc(Cl)ccc2C(F)(F)F)n1 (stereo in doubt) [Example 51, 5-Chloro-1-{5-{3-[3-cyano-4-(3,4,5-trifluorophenyl)-1H-1,2-pyrazol-1-yl]-3-deoxy-β-D-galactopyranosyl}-3-methyl-1H-1,2,4-triazol-1-yl}-2-(trifluoromethyl)benzene]
7.04	Cc1nc([C@@H]2OC(CO)[C@H](O)C(n3cc(-c4cc(F)c(F)c(F)c4)c(-c4ccccc4C)n3)C2O)n(-c2cc(Cl)ccc2C(F)(F)F)n1 (stereo in doubt) [Example 53, 5-Chloro-1-{5-{3-deoxy-3-[4-(3,4,5-trifluorophenyl)-3-(2-methylphenyl)-1H-1,2-pyrazol-1-yl]-β-D-galactopyranosyl}-3-methyl-1H-1,2,4-triazol-1-yl}-2-(trifluoromethyl)benzene]
7.48	Cc1nc([C@@H]2OC(CO)[C@H](O)C(n3cc(-c4cc(F)c(F)c(F)c4)cn3)C2O)n(-c2cc(Br)cnc2C#N)n1 (stereo in doubt) [Example 22, 5-Bromo-2-cyano-3-{5-{3-deoxy-3-[4-(3,4,5-trifluorophenyl)-1H-1,2-pyrazol-1-yl]-β-D-galactopyranosyl}-3-methyl-1H-1,2,4-triazol-1-yl}pyridine]
7.46	Cc1nc([C@@H]2OC(CO)[C@H](O)C(n3cc(-c4cc(F)c(F)c(F)c4)cn3)C2O)n(-c2cnc3nc(C)sc3c2)n1 (stereo in doubt) [Example 45, 6-{5-{3-Deoxy-3-[4-(3,4,5-trifluorophenyl)-1H-1,2-pyrazol-1-yl]-β-D-galactopyranosyl}-3-methyl-1H-1,2,4-triazol-1-yl}-2-methylthiazolo[4,5-b]pyridine]
7.92	CCc1nc2ccc(-n3nc(C)nc3[C@@H]3OC(CO)[C@H](O)C(n4cc(-c5cc(F)c(F)c(F)c5)cn4)C3O)cc2s1 (stereo in doubt) [Example 35, 6-{5-{3-Deoxy-3-[4-(3,4,5-trifluorophenyl)-1H-1,2-pyrazol-1-yl]-β-D-galactopyranosyl}-3-methyl-1H-1,2,4-triazol-1-yl}-2-ethylbenzothiazole]
6.62	Cc1nc([C@@H]2OC(CO)[C@H](O)C(n3cc(-c4cc(F)c(F)c(F)c4)c(-c4cccc(F)c4)n3)C2O)n(-c2cc(Cl)ccc2C(F)(F)F)n1 (stereo in doubt) [Example 54, 5-Chloro-1-{5-{3-deoxy-3-[4-(3,4,5-trifluorophenyl)-3-(3-fluorophenyl)-1H-1,2-pyrazol-1-yl]-β-D-galactopyranosyl}-3-methyl-1H-1,2,4-triazol-1-yl}-2-(trifluoromethyl)benzene]
6.64	Cc1nc([C@@H]2OC(CO)[C@H](O)C(n3cc(-c4cc(F)c(F)c(F)c4)cn3)C2O)n(-c2ccc3nc(C(F)(F)F)sc3c2)n1 (stereo in doubt) [Example 36, 6-{5-{3-Deoxy-3-[4-(3,4,5-trifluorophenyl)-1H-1,2-pyrazol-1-yl]-β-D-galactopyranosyl}-3-methyl-1H-1,2,4-triazol-1-yl}-2-(trifluoromethyl)benzothiazole]
6.96	Cc1nc([C@@H]2OC(CO)[C@H](O)C(n3cc(-c4ccc(C(F)(F)F)cc4)cn3)C2O)n(-c2cc(Cl)ccc2C(F)(F)F)n1 (stereo in doubt) [Example 56, 5-Chloro-1-{5-{3-deoxy-3-{4-[4-(trifluoromethyl)phenyl]-1H-1,2-pyrazol-1-yl}-β-D-galactopyranosyl}-3-methyl-1H-1,2,4-triazol-1-yl}-2-(trifluoromethyl)benzene]
7.96	Cc1nc([C@@H]2OC(CO)[C@H](O)C(n3cc(-c4cc(F)c(F)c(F)c4)cn3)C2O)n(-c2cc(Cl)cnc2C(F)(F)F)n1 (stereo in doubt) [Example 20, 5-Chloro-3-{5-{3-deoxy-3-[4-(3,4,5-trifluorophenyl)-1H-1,2-pyrazol-1-yl]-β-D-galactopyranosyl}-3-methyl-1H-1,2,4-triazol-1-yl}-2-(trifluoromethyl)pyridine]
8.22	Cc1nc([C@@H]2OC(CO)[C@H](O)C(n3cc(-c4cc(F)c(Cl)c(F)c4)c(C(=O)O)n3)C2O)n(-c2cc(Cl)ccc2C(F)(F)F)n1 (stereo in doubt) [Example 30, 1-{5-{3-[3-Carboxy-4-(4-chloro-3,5-difluorophenyl)-1H-1,2-pyrazol-1-yl]-3-deoxy-β-D-galactopyranosyl}-3-methyl-1H-1,2,4-triazol-1-yl}-5-chloro-2-(trifluoromethyl)benzene]
